From patent publication US10131652B2, “Pyrimidinyloxy benzene derivatives as herbicides” (E. I. DU PONT DE NEMOURS AND COMPANY, priority 2014, dated 2018)
Like-named read-outs stand apart in the source and are kept apart here.

How the values were obtained:
Assay in all cases: Test F pre-/postemergence plant response
Format in all cases: in vivo
[1] = tested on: hairy beggarticks (Bidens pilosa); conditions: Bidens pilosa, scale 0 to 100, read-out: Plant response rating, Beggarticks
Summary of the method: (§1)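 Two application timings were run side by side: soil surface treatment of freshly planted seed in silt loam, and foliar treatment of seedlings 2 to 18 cm high. Plants stayed in the greenhouse 14 to 21 days before visual 0–100 injury scoring against controls.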

[2] = tested on: Italian ryegrass (Lolium multiflorum); conditions: Lolium multiflorum, scale 0 to 100, read-out: Plant response rating, Ryegrass, Italian; for pest or weed control at 16 g/ha: 16 g ai/ha; for pest or weed control at 31 g/ha: 31 g ai/ha; for pest or weed control at 125 g/ha: 125 g ai/ha
Summary of the method: as §1

[3] = tested on: waterhemp (common waterhemp, Amaranthus rudis); conditions: Amaranthus tuberculatus, scale 0 to 100, read-out: Plant response rating, Waterhemp
Summary of the method: as §1

[4] = tested on: palmer pigweed (Amaranthus palmeri); conditions: Amaranthus palmeri, scale 0 to 100, read-out: Plant response rating, Pigweed, Palmer
Summary of the method: as §1

[5] = tested on: sandbur (southern sandbur, Cenchrus echinatus); conditions: Cenchrus echinatus, scale 0 to 100, read-out: Plant response rating, Sandbur
Summary of the method: as §1

[6] = tested on: soybean (Glycine max); conditions: Glycine max, scale 0 to 100, read-out: Plant response rating, Soybean
Summary of the method: as §1

[7] = tested on: lambsquarters (Chenopodium album); conditions: Chenopodium album, pre-emergence, scale 0 to 100, read-out: Plant response rating, Lambsquarters
Summary of the method: as §1

[8] = post-emergence, 8 g ai/ha Postemergence
[9] = post-emergence, 16 g ai/ha Postemergence
[10] = post-emergence, 31 g ai/ha Postemergence
[11] = post-emergence, 62 g ai/ha Postemergence
[12] = post-emergence, 125 g ai/ha Postemergence
[13] = pre-emergence, 8 g ai/ha Preemergence
[14] = pre-emergence, 16 g ai/ha Preemergence
[15] = pre-emergence, 31 g ai/ha Preemergence
[16] = pre-emergence, 125 g ai/ha Preemergence

Molecule FC(F)c1cc(-c2ccccc2Oc2ncc(Br)cn2)no1 [Compound 62, 5-bromo-2-[2-[5-(difluoromethyl)-3-isoxazolyl]phenoxy]pyrimidine] has a pest or weed control at 8 g/ha [1, 8] of 5%, a pest or weed control at 16 g/ha [1, 9] of 5% and a pest or weed control at 31 g/ha [1, 10] of 10%. The pest or weed control at 62 g/ha [1, 11] was 50%, the pest or weed control at 125 g/ha [1, 12] was 80% and the pest or weed control at 8 g/ha [1, 13] was 0%. The pest or weed control at 16 g/ha [1, 14] was 0%, the pest or weed control at 31 g/ha [1, 15] was 0% and the pest or weed control at 62 g/ha ([1]; pre-emergence, 62 g ai/ha Preemergence) was 0%. It also gave a pest or weed control at 125 g/ha [1, 16] of 0%, a pest or weed control at 8 g/ha [2, 8] of 0% and a pest or weed control at 16 g/ha ([2]; post-emergence, Postemergence) of 0%. The pest or weed control at 31 g/ha ([2]; post-emergence, Postemergence) was 0%, the pest or weed control at 62 g/ha ([2]; post-emergence, 62 g ai/ha, Postemergence) was 10% and the pest or weed control at 125 g/ha ([2]; post-emergence, Postemergence) was 10%. It also gave a pest or weed control at 8 g/ha [2, 13] of 0%, a pest or weed control at 16 g/ha ([2]; pre-emergence, Preemergence) of 0% and a pest or weed control at 31 g/ha ([2]; pre-emergence, Preemergence) of 0%. It also gave a pest or weed control at 125 g/ha ([2]; pre-emergence, Preemergence) of 40%, a pest or weed control at 62 g/ha ([2]; pre-emergence, Preemergence) of 0% and a pest or weed control at 8 g/ha [3, 8] of 80%. The pest or weed control at 16 g/ha [3, 9] was 90%, the pest or weed control at 31 g/ha [3, 10] was 100% and the pest or weed control at 62 g/ha [3, 11] was 100%. It also gave a pest or weed control at 125 g/ha [3, 12] of 100%, a pest or weed control at 8 g/ha [3, 13] of 80% and a pest or weed control at 16 g/ha [3, 14] of 85%. It also gave a pest or weed control at 31 g/ha [3, 15] of 98%, a pest or weed control at 125 g/ha [3, 16] of 100% and a pest or weed control at 62 g/ha ([3]; pre-emergence, Preemergence) of 100%. It also gave a pest or weed control at 8 g/ha [4, 8] of 90%, a pest or weed control at 16 g/ha [4, 9] of 70% and a pest or weed control at 31 g/ha [4, 10] of 95%. For the same molecule, the pest or weed control at 62 g/ha [4, 11] was 100%, the pest or weed control at 125 g/ha [4, 12] was 100% and the pest or weed control at 8 g/ha [4, 13] was 10%. For the same molecule, the pest or weed control at 16 g/ha [4, 14] was 80%, the pest or weed control at 31 g/ha [4, 15] was 75% and the pest or weed control at 125 g/ha [4, 16] was 100%. It also gave a pest or weed control at 62 g/ha ([4]; pre-emergence, Preemergence) of 100%, a pest or weed control at 8 g/ha [5, 8] of 0% and a pest or weed control at 16 g/ha [5, 9] of 0%. It also gave a pest or weed control at 31 g/ha [5, 10] of 0%, a pest or weed control at 62 g/ha [5, 11] of 0% and a pest or weed control at 125 g/ha [5, 12] of 0%. For the same molecule, the pest or weed control at 8 g/ha [5, 13] was 0%, the pest or weed control at 16 g/ha [5, 14] was 0% and the pest or weed control at 31 g/ha [5, 15] was 0%. For the same molecule, the pest or weed control at 125 g/ha [5, 16] was 35%, the pest or weed control at 62 g/ha ([5]; pre-emergence, Preemergence) was 0% and the plant injury at 8 g/ha [6, 8] was 10%. It also gave a plant injury at 16 g/ha [6, 9] of 20%, a plant injury at 31 g/ha [6, 10] of 40% and a plant injury at 62 g/ha [6, 11] of 65%. For the same molecule, the plant injury at 125 g/ha [6, 12] was 85%, the plant injury at 8 g/ha [6, 13] was 0% and the plant injury at 16 g/ha [6, 14] was 0%. The plant injury at 31 g/ha [6, 15] was 0%, the plant injury at 125 g/ha [6, 16] was 40% and the plant injury at 62 g/ha ([6]; pre-emergence, Preemergence) was 10%. It also gave a pest or weed control at 8 g/ha ([7]; 8 g ai/ha Preemergence) of 70%, a pest or weed control at 16 g/ha ([7]; 16 g ai/ha, Preemergence) of 90% and a pest or weed control at 31 g/ha ([7]; 31 g ai/ha, Preemergence) of 95%. For the same molecule, the pest or weed control at 125 g/ha ([7]; 125 g ai/ha, Preemergence) was 100% and the pest or weed control at 62 g/ha ([7]; Preemergence) was 95%.
